Reference: PubChem BioAssay AID2060616 (Molecular Pharmacology Branch, DTP, NCI, 2025)

Tested on: 377384-186-R-J1-PDC complex spheroid viability
Test: Anticancer human tumor 377384-186-R-J1-PDC patient-derived pancreatic carcinoma cell line growth inhibition [CLK]
Settings: for IC50: curve of first compound; for viability, T/C: stronger effect = lower value
Summary of the method: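 Patient-derived tumor cells grown as complex spheroids with HUVEC endothelial cells and mesenchymal stem cells, treated with drug combinations. Concentrations descend in half-log steps from near clinical Cmax, or from 10 microM if Cmax unknown.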
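Further: spheroids exposed to agents for 7 days before reading.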
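Wherever viability, T/C is given: luminescence signal used as a stand-in for viable cells.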

CC(=O)O[C@H]1C(=O)[C@@]2(C)[C@H]([C@H](OC(=O)c3ccccc3)[C@]3(O)C[C@H](OC(=O)[C@H](O)[C@@H](NC(=O)c4ccccc4)c4ccccc4)C(C)=C1C3(C)C)[C@]1(OC(C)=O)CO[C@@H]1C[C@@H]2O + CN1CCN(c2cc(C(=O)Nc3cc4cc(-c5cnn(C)c5)ccc4cn3)ccn2)CC1
IC50 (second compound 0.0316 µM): < 0.0316 µM | IC50 (second compound 0.1 µM): < 0.0316 µM | IC50 (second compound 0.316 µM): < 0.0316 µM | IC50 (second compound 1 µM): < 0.0316 µM | IC50 (second compound 3.16 µM): < 0.0316 µM | IC50 (second compound 10 µM): < 0.0316 µM | viability, T/C (second compound 0.0316 µM, first compound 0.0316 µM): 9.18% | viability, T/C (second compound 0.0316 µM, first compound 0.1 µM): 9.07% | viability, T/C (second compound 0.0316 µM, first compound 0.316 µM): 7.15% | viability, T/C (second compound 0.0316 µM, first compound 1 µM): 8.23% | viability, T/C (second compound 0.0316 µM, first compound 3.16 µM): 10.1% | viability, T/C (second compound 0.0316 µM, first compound 10 µM): 14.8% | viability, T/C (second compound 0.1 µM, first compound 0.0316 µM): 7.97% | viability, T/C (second compound 0.1 µM, first compound 0.1 µM): 9.15% | viability, T/C (second compound 0.1 µM, first compound 0.316 µM): 10.9% | viability, T/C (second compound 0.1 µM, first compound 1 µM): 10.7% | viability, T/C (second compound 0.1 µM, first compound 3.16 µM): 8.46% | viability, T/C (second compound 0.1 µM, first compound 10 µM): 15.1% | viability, T/C (second compound 0.316 µM, first compound 0.0316 µM): 9.05% | viability, T/C (second compound 0.316 µM, first compound 0.1 µM): 9.91% | viability, T/C (second compound 0.316 µM, first compound 0.316 µM): 10.6% | viability, T/C (second compound 0.316 µM, first compound 1 µM): 11.4% | viability, T/C (second compound 0.316 µM, first compound 3.16 µM): 15.1% | viability, T/C (second compound 0.316 µM, first compound 10 µM): 14.1% | viability, T/C (second compound 1 µM, first compound 0.0316 µM): 0.76% | viability, T/C (second compound 1 µM, first compound 0.1 µM): 0.53% | viability, T/C (second compound 1 µM, first compound 0.316 µM): 1.35% | viability, T/C (second compound 1 µM, first compound 1 µM): 0.93% | viability, T/C (second compound 1 µM, first compound 3.16 µM): 0.78% | viability, T/C (second compound 1 µM, first compound 10 µM): 1.13% | viability, T/C (second compound 3.16 µM, first compound 0.0316 µM): 0.39% | viability, T/C (second compound 3.16 µM, first compound 0.1 µM): 0.51% | viability, T/C (second compound 3.16 µM, first compound 0.316 µM): 0.58% | viability, T/C (second compound 3.16 µM, first compound 1 µM): 0.7% | viability, T/C (second compound 3.16 µM, first compound 3.16 µM): 1.32% | viability, T/C (second compound 3.16 µM, first compound 10 µM): 2.27% | viability, T/C (second compound 10 µM, first compound 0.0316 µM): 0.34% | viability, T/C (second compound 10 µM, first compound 0.1 µM): 0.28% | viability, T/C (second compound 10 µM, first compound 0.316 µM): 0.49% | viability, T/C (second compound 10 µM, first compound 1 µM): 0.48% | viability, T/C (second compound 10 µM, first compound 3.16 µM): 0.4% | viability, T/C (second compound 10 µM, first compound 10 µM): 0.37%
